Laboratory results published in ChEMBL document CHEMBL1201862, “PubChem BioAssay data set” (2004).
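1) Cells in 96-well plates. 2) Compound, 48 h, 5 concentrations. 3) Linear interpolation between surrounding doses. 4) Unreached endpoint = highest concentration. GI50 = concentration required for 50% inhibition of growth.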 Active and inactive are the calls of the source. Cut-off read from the data, not from the text of the source: active = GI50 up to about 1.1 µM and inactive = higher.

Experiments:
Test in all cases: inhibition of tumour cell growth, NCI panel, 48 h
OVCAR-8 = test system: OVCAR-8
ACHN = test system: ACHN
SNB-19 = test system: SNB-19
NCI-H23 = test system: NCI-H23
CCRF-CEM = test system: CCRF-CEM
TK-10 = test system: TK-10
SR = test system: SR
SF-539 = test system: SF-539
HCC 2998 = test system: HCC 2998
SK-MEL-5 = test system: SK-MEL-5
A549 = test system: A549
A498 = test system: A498
KM-20L2 = test system: KM-20L2
NCI-H522 = test system: NCI-H522
UACC-62 = test system: UACC-62
SNB-75 = test system: SNB-75
HOP-92 = test system: HOP-92

Measured: GI50

O=C(O)Cn1c(=O)[nH]c(=O)c2[nH]cnc21
inactive: OVCAR-8 > 100 µM | ACHN > 100 µM | SNB-19 > 100 µM | NCI-H23 > 100 µM | CCRF-CEM > 100 µM | TK-10 > 100 µM | SR > 100 µM | SF-539 > 100 µM | HCC 2998 > 100 µM | SK-MEL-5 > 100 µM | A549 > 100 µM | A498 > 100 µM | KM-20L2 > 100 µM | NCI-H522 > 100 µM | UACC-62 > 100 µM | SNB-75 > 100 µM

CC(=O)OC1CCn2nnc(CO[Si](C)(C)C(C)(C)C)c21 (stereo not given)
inactive: OVCAR-8 > 100 µM | ACHN > 100 µM | SNB-19 > 100 µM | NCI-H23 > 100 µM | TK-10 > 100 µM | SR > 100 µM | SF-539 > 100 µM | HCC 2998 > 100 µM | SK-MEL-5 > 100 µM | A549 > 100 µM | KM-20L2 > 100 µM | NCI-H522 > 100 µM | SNB-75 21 µM

COC(=O)N/N=C(\C)C(CN1CCCCC1)C(C1=C(O)c2ccccc2OC1)c1ccccc1 (stereo not given)
inactive: OVCAR-8 > 100 µM | ACHN > 100 µM | SNB-19 > 100 µM | NCI-H23 > 100 µM | CCRF-CEM > 100 µM | TK-10 > 100 µM | SR > 100 µM | SF-539 > 100 µM | SK-MEL-5 > 100 µM | A549 > 100 µM | A498 > 100 µM | KM-20L2 > 100 µM | NCI-H522 > 100 µM | UACC-62 86.3 µM | SNB-75 95.7 µM

CN(O)C(=O)Cc1ccccc1
inactive: OVCAR-8 > 100 µM | HOP-92 > 100 µM | ACHN > 100 µM | SNB-19 > 100 µM | NCI-H23 > 100 µM | CCRF-CEM > 100 µM | TK-10 > 100 µM | SR > 100 µM | SF-539 > 100 µM | HCC 2998 > 100 µM | SK-MEL-5 > 100 µM | A549 > 100 µM | KM-20L2 > 100 µM | NCI-H522 > 100 µM | UACC-62 > 100 µM | SNB-75 67 µM

C/C(=C\CNc1ncnc2c1ncn2C1CCCCO1)COP(=O)(O)O (stereo not given)
inactive: OVCAR-8 > 100 µM | HOP-92 > 100 µM | ACHN > 100 µM | SNB-19 > 100 µM | NCI-H23 > 100 µM | CCRF-CEM > 100 µM | TK-10 > 100 µM | SR > 100 µM | SF-539 > 100 µM | HCC 2998 > 100 µM | SK-MEL-5 > 100 µM | A549 > 100 µM | KM-20L2 > 100 µM | NCI-H522 > 100 µM | UACC-62 > 100 µM | SNB-75 > 100 µM

CC(C)(C)c1ccc2c(c1)C(O)(c1ccccc1)c1cc(C(C)(C)C)ccc1C2(O)C(F)(F)F (stereo not given)
inactive: OVCAR-8 2.12 µM | HOP-92 1.97 µM | ACHN 2.14 µM | SNB-19 2.27 µM | NCI-H23 1.81 µM | CCRF-CEM 2.13 µM | TK-10 3.98 µM | SR 2.13 µM | SF-539 1.74 µM | HCC 2998 2.1 µM | A549 1.88 µM | A498 1.83 µM | KM-20L2 1.59 µM | NCI-H522 1.64 µM | UACC-62 1.63 µM | SNB-75 2.13 µM

COc1ccc2c(c1)N1CCc3cc(OC)c(OC)cc3C1C2 (stereo not given)
inactive: OVCAR-8 > 100 µM | HOP-92 79.8 µM | ACHN 53 µM | SNB-19 > 100 µM | NCI-H23 50.1 µM | CCRF-CEM 61 µM | TK-10 > 100 µM | SR 34.2 µM | SF-539 > 100 µM | HCC 2998 51.1 µM | A549 47.8 µM | A498 41.4 µM | KM-20L2 73.3 µM | NCI-H522 23.7 µM | UACC-62 23.6 µM

O=c1[nH]c(=O)n(C2CC(O)C(CO)O2)cc1C#Cc1ccc(F)cc1 (stereo not given)
inactive: OVCAR-8 > 100 µM | ACHN > 100 µM | SNB-19 > 100 µM | NCI-H23 > 100 µM | CCRF-CEM > 100 µM | SR > 100 µM | SF-539 > 100 µM | HCC 2998 > 100 µM | SK-MEL-5 > 100 µM | A549 > 100 µM | KM-20L2 > 100 µM | NCI-H522 > 100 µM | UACC-62 > 100 µM | SNB-75 > 100 µM

C=C=C(CC)C(C(=O)OC)N(CC)CC (stereo not given)
inactive: OVCAR-8 > 100 µM | HOP-92 > 100 µM | ACHN > 100 µM | SNB-19 > 100 µM | NCI-H23 > 100 µM | CCRF-CEM > 100 µM | TK-10 > 100 µM | SR > 100 µM | SF-539 > 100 µM | SK-MEL-5 > 100 µM | A549 > 100 µM | A498 > 100 µM | KM-20L2 > 100 µM | NCI-H522 > 100 µM | UACC-62 > 100 µM | SNB-75 > 100 µM

O=C(Nc1ccn(CCI)c(=O)n1)c1ccccc1
inactive: OVCAR-8 > 100 µM | HOP-92 > 100 µM | ACHN > 100 µM | CCRF-CEM > 100 µM | TK-10 > 100 µM | SR > 100 µM | SF-539 > 100 µM | SK-MEL-5 > 100 µM | A549 > 100 µM | A498 > 100 µM | KM-20L2 > 100 µM | NCI-H522 > 100 µM | UACC-62 > 100 µM | SNB-75 > 100 µM

COC(=O)C(C(=O)C(=O)Nc1ccccc1OC)c1csc(-n2nc(-c3ccccc3)cc2-c2ccccc2)n1 (stereo not given)
inactive: OVCAR-8 > 100 µM | HOP-92 > 100 µM | ACHN > 100 µM | SNB-19 > 100 µM | NCI-H23 > 100 µM | CCRF-CEM > 100 µM | TK-10 > 100 µM | SR 90.8 µM | HCC 2998 > 100 µM | A549 > 100 µM | A498 > 100 µM | KM-20L2 > 100 µM | NCI-H522 > 100 µM | UACC-62 > 100 µM | SNB-75 8.97 µM

CCOC(=O)c1nc(C)oc1C(F)(F)F
inactive: OVCAR-8 > 100 µM | HOP-92 > 100 µM | ACHN > 100 µM | SNB-19 > 100 µM | NCI-H23 > 100 µM | CCRF-CEM > 100 µM | TK-10 > 100 µM | SR > 100 µM | SF-539 > 100 µM | HCC 2998 > 100 µM | A549 > 100 µM | A498 > 100 µM | KM-20L2 > 100 µM | NCI-H522 > 100 µM | UACC-62 > 100 µM | SNB-75 > 100 µM

COCOC1CCCC[C@@]1(OCCOCCO[C@@]1(c2ccccc2)CCCC[C@H]1OCOC)c1ccccc1 (stereo not given in full)
inactive: OVCAR-8 > 100 µM | ACHN 87.7 µM | SNB-19 > 100 µM | NCI-H23 > 100 µM | CCRF-CEM > 100 µM | TK-10 70.6 µM | SR > 100 µM | HCC 2998 > 100 µM | A549 99.5 µM | KM-20L2 > 100 µM | NCI-H522 > 100 µM | UACC-62 > 100 µM | SNB-75 24.4 µM
